Test system: pain after surgical removal of impacted third molars
Experiment: Phase 2 dental pain study: pain relief, 5-point categorical scale (TOTPAR, pain relief score, peak pain relief, time to peak pain relief)
Type: in vivo, human
Conditions: for Pain relief score A Little (1), % / Pain relief score None (0), % / Pain relief score Some (2), % / Pain relief score A Lot (3), % / Pain relief score Complete (4), %: 400 mg; for TOTPAR-8, LS mean difference vs placebo: treatment - placebo
Experimental: This was a phase-2, multicenter, randomized, double-blind, single-dose, parallel-group, active- and placebo-controlled study to evaluate the efficacy and safety of Indomethacin Nanoformulation Capsules (20 mg and 40 mg) in subjects with postoperative dental pain.
On Day 1, eligible subjects underwent extraction of 2 or more third molars, at least 1 of which had to be a fully or partially bone-impacted mandibular molar. If only 2 molars were removed, then they had to be ipsilateral.
Subjects assessed their baseline pain intensity (VAS) before receiving study drug (predose, Time 0) and their pain intensity (VAS) and pain relief (5-point categorical scale) at 15, 30, and 45 minutes and 1, 1.5, 2, 3, 4, 5, 6, 7, and 8 hours after Time 0 and immediately before the first dose of rescue medication. The 2-stopwatch method was used to record the time to perceptible and time to meaningful pain relief, respectively. Acetaminophen (1000 mg) was permitted as the initial rescue medication. Subjects were encouraged to wait at least 60 minutes after receiving study drug before taking rescue medication. […] Other restrictions included the following: no alcohol use from 24 hours before surgery until discharge on Day 1; nothing by mouth (NPO) from midnight before surgery until 1 hour after surgery; clear liquids only from 1 hour after surgery until 1 hour after dosing; and advancement of diet 1 hour after dosing according to standard practice.
The primary efficacy endpoint was the sum of total pain relief (TOTPAR) over 0 to 8 hours (TOTPAR-8) after Time 0. The TOTPAR was calculated using the pain relief score (5-point categorical scale) at each follow-up time point weighted (multiplied) using the amount of time since the prior assessment.
The secondary efficacy endpoints were as follows: • TOTPAR over 0 to 4 hours (TOTPAR-4) after Time 0 • Visual Analogue Scale (VAS) pain intensity difference (VASPID) at each scheduled time point after Time 0 • Time to onset of analgesia (measured as time to perceptible pain relief confirmed by meaningful pain relief) • VAS pain intensity score at each scheduled time point • VAS summed pain intensity difference (VASSPID) over 0 to 4 hours (VASSPID-4) and over 0 to 8 hours (VASSPID-8) after Time 0 • Pain relief score at each scheduled time point after Time 0 • Peak pain relief • Time to peak pain relief • Time to first perceptible pain relief • Time to meaningful pain relief • Proportion of subjects using rescue medication • Time to first use of rescue medication (duration of analgesia) • Patient's global evaluation of study drug Safety:
The null hypothesis was that TOTPAR over 0 to 8 hours after Time 0 (TOTPAR-8) for placebo would be equal to TOTPAR-8 for 40-mg Indomethacin Nanoformulation Capsules. The null hypothesis was analyzed using analysis of covariance (ANCOVA) models, which included treatment effect and significant covariates. The effect of potential covariates, such as sex, baseline pain intensity, and surgical trauma rating, were assessed using appropriate ANCOVA models. The analysis was based on a 2-sided test at the significance level of 0.05.
The least squares (LS) mean and 95% confidence interval (CI) for each treatment regimen, the mean (LS mean) difference between the 2 treatments, and the associated P value and 95% CI for the mean difference were computed from the ANCOVA model. This analysis utilized primarily the ITT population, and sensitivity analysis utilized the PP population.
Other comparisons between the treatment regimens, including 20-mg Indomethacin Nanoformulation Capsules versus placebo and 400-mg celecoxib capsules versus placebo, were considered secondary but also utilized the ITT population. The primary efficacy variable was also summarized by site, but no P values or statistical tests for site were computed.
Each efficacy endpoint was summarized descriptively by treatment group. […]

Cc1ccc(-c2cc(C(F)(F)F)nn2-c2ccc(S(N)(=O)=O)cc2)cc1 [Celecoxib]
Pain relief score A Little (1), % (15 minutes, ITT): (21.6) %
Pain relief score None (0), % (15 minutes, ITT): (74.5) %
Pain relief score Some (2), % (15 minutes, ITT): (3.9) %
Pain relief score A Little (1), % (30 minutes, ITT): (41.2) %
Pain relief score A Lot (3), % (30 minutes, ITT): (3.9) %
Pain relief score None (0), % (30 minutes, ITT): (51.0) %
Pain relief score Some (2), % (30 minutes, ITT): (3.9) %
Pain relief score A Little (1), % (45 minutes, ITT): (37.3) %
Pain relief score A Lot (3), % (45 minutes, ITT): (13.7) %
Pain relief score Complete (4), % (45 minutes, ITT): (2.0) %
Pain relief score None (0), % (45 minutes, ITT): (27.5) %
Pain relief score Some (2), % (45 minutes, ITT): (19.6) %
Pain relief score A Little (1), % (1 hour, ITT): (31.4) %
Pain relief score A Lot (3), % (1 hour, ITT): 25.5%
Pain relief score Complete (4), % (1 hour, ITT): (3.9) %
Pain relief score None (0), % (1 hour, ITT): (15.7) %
Pain relief score Some (2), % (1 hour, ITT): (23.5) %
Pain relief score A Little (1), % (2 hours, ITT): (13.7) %
Pain relief score A Lot (3), % (2 hours, ITT): (49.0) %
Pain relief score Complete (4), % (2 hours, ITT): (5.9) %
Pain relief score None (0), % (2 hours, ITT): (17.6) %
Pain relief score Some (2), % (2 hours, ITT): (13.7) %
Pain relief score A Little (1), % (3 hours, ITT): (5.9) %
Pain relief score A Lot (3), % (3 hours, ITT): (51.0) %
Pain relief score Complete (4), % (3 hours, ITT): (5.9) %
Pain relief score None (0), % (3 hours, ITT): (21.6) %
Pain relief score Some (2), % (3 hours, ITT): (15.7) %
Pain relief score A Little (1), % (4 hours, ITT): (7.8) %
Pain relief score A Lot (3), % (4 hours, ITT): (49.0) %
Pain relief score Complete (4), % (4 hours, ITT): (9.8) %
Pain relief score None (0), % (4 hours, ITT): (27.5) %
Pain relief score Some (2), % (4 hours, ITT): (5.9) %
Pain relief score A Little (1), % (5 hours, ITT): (3.9) %
Pain relief score A Lot (3), % (5 hours, ITT): (43.1) %
Pain relief score Complete (4), % (5 hours, ITT): (11.8) %
Pain relief score None (0), % (5 hours, ITT): (31.4) %
Pain relief score Some (2), % (5 hours, ITT): (9.8) %
Pain relief score A Little (1), % (6 hours, ITT): (2.0) %
Pain relief score A Lot (3), % (6 hours, ITT): (37.3) %
Pain relief score Complete (4), % (6 hours, ITT): (17.6) %
Pain relief score None (0), % (6 hours, ITT): (37.3) %
Pain relief score Some (2), % (6 hours, ITT): (5.9) %
Pain relief score A Lot (3), % (7 hours, ITT): (43.1) %
Pain relief score Complete (4), % (7 hours, ITT): (13.7) %
Pain relief score None (0), % (7 hours, ITT): (41.2) %
Pain relief score Some (2), % (7 hours, ITT): (2.0) %
Pain relief score A Lot (3), % (8 hours, ITT): (41.2) %
Pain relief score Complete (4), % (8 hours, ITT): (13.7) %
Pain relief score None (0), % (8 hours, ITT): (41.2) %
Pain relief score Some (2), % (8 hours, ITT): (3.9) %
Time to peak pain relief, Hazard ratio (Cox proportional hazards model, vs placebo, ITT): 1.8
Peak pain relief: A Little (1) (ITT): (11.8) %
Peak pain relief: A Lot (3) (ITT): (47.1) %
Peak pain relief: Complete (4) (ITT): (21.6) %
Peak pain relief: None (0) (ITT): (7.8) %
Peak pain relief: Some (2) (ITT): (11.8) %
Time to peak pain relief: subjects analyzed (ITT): (58.8) %
Time to peak pain relief: subjects censored (ITT): (41.2) %
TOTPAR-4, Mean (ITT population): 7.152
TOTPAR-4, Median (ITT population): 8.750
Time to peak pain relief, Mean (Kaplan-Meier estimate, ITT): 3.3 h
Time to peak pain relief, Q25 (Kaplan-Meier estimate, ITT): 1.50 h
Time to peak pain relief, Q50 (Kaplan-Meier estimate, ITT): 3.00 h
Time to peak pain relief, Q75 (Kaplan-Meier estimate, ITT): 5.00 h
TOTPAR-8, LS mean (Model 1 (primary): ANCOVA, baseline pain intensity as only covariate, ITT): 14.822
TOTPAR-8, LS mean difference vs placebo (Model 1 (primary), ITT): 11.803
TOTPAR-8, LS mean (Model 2: baseline pain intensity, gender and surgical trauma rating as covariates, ITT): 14.797
TOTPAR-8, LS mean difference vs placebo (Model 2, ITT): 11.864
TOTPAR-8, Median (Overall, ITT population): 19.250
TOTPAR-8, Mean (Overall, ITT population, single oral dose (celecoxib 400 mg)): 14.858
TOTPAR-8, Mean (Site 50048, ITT population): 15.524
TOTPAR-8, Median (Site 50048, ITT population): 20.500
TOTPAR-8, Mean (Site 50053, ITT population): 14.021
TOTPAR-8, Median (Site 50053, ITT population): 14.625
TOTPAR-8, Mean (Site 50054, ITT population): 14.639
TOTPAR-8, Median (Site 50054, ITT population): 20.750
Pain relief score A Little (1), % ([…], ITT): (17.6) %
Pain relief score A Lot (3), % ([…], ITT): (31.4) %
Pain relief score Complete (4), % ([…], ITT): (3.9) %
Pain relief score None (0), % ([…], ITT): (17.6) %
Pain relief score Some (2), % ([…], ITT): (29.4) %
Time point from which pain relief scores were statistically significantly more favorable than placebo (onward after Time 0): ≥ 45 min

Reference: patent US8992982B2, “Formulation of indomethacin” (Iceutica Pty Ltd., priority 2009, dated 2015)
